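Protocol summary: plate cells (96-well), add compound at 5 concentrations, incubate 48 h, interpolate endpoints linearly. At the GI50, growth is halved. Definition used: TGI = concentration required for complete inhibition of growth.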
Tests used:
Experiment in all cases: NCI tumour cell line growth inhibition, 48 h
A498 renal = tested on: A498 renal
BT-549 breast = tested on: BT-549 breast
CCRF-CEM leukemia = tested on: CCRF-CEM leukemia
NCI-H522 lung = tested on: NCI-H522 lung
NCI/ADR-RES ovarian = tested on: NCI/ADR-RES ovarian
SK-OV-3 ovarian = tested on: SK-OV-3 ovarian
SNB-19 CNS = tested on: SNB-19 CNS
T-47D breast = tested on: T-47D breast
UACC-257 melanoma = tested on: UACC-257 melanoma
UACC-62 melanoma = tested on: UACC-62 melanoma

| SMILES | TGI (A498 renal) [µM] | TGI (BT-549 breast) [µM] | TGI (CCRF-CEM leukemia) [µM] | TGI (NCI-H522 lung) [µM] | TGI (NCI/ADR-RES ovarian) [µM] | TGI (SK-OV-3 ovarian) [µM] | TGI (SNB-19 CNS) [µM] | TGI (T-47D breast) [µM] | TGI (UACC-257 melanoma) [µM] | TGI (UACC-62 melanoma) [µM] | GI50 (A498 renal) [µM] | GI50 (BT-549 breast) [µM] | GI50 (CCRF-CEM leukemia) [µM] | GI50 (NCI-H522 lung) [µM] | GI50 (NCI/ADR-RES ovarian) [µM] | GI50 (SK-OV-3 ovarian) [µM] | GI50 (T-47D breast) [µM] | GI50 (UACC-257 melanoma) [µM] | GI50 (UACC-62 melanoma) [µM] |
| --- | --- | --- | --- | --- | --- | --- | --- | --- | --- | --- | --- | --- | --- | --- | --- | --- | --- | --- | --- |
| CCOC1CC(=O)c2c(Br)sc(Br)c21 (stereo not drawn) | 83.3 | 66.1 | 50.8 | 52.7 | > 100 | 30.4 | 51.9 | 44.1 | 32.2 | 35.1 | – | – | – | – | – | – | – | – | – |
| COP(=O)(O)/C=C/C(NC(=O)C(Cl)(Cl)Cl)c1ccccc1 (stereo not drawn) | > 100 | > 100 | – | > 100 | > 100 | > 100 | > 100 | > 100 | > 100 | > 100 | – | – | – | – | – | – | – | – | – |
| O=C(O)C1CC(c2ccc(F)cc2)=Nc2ccc(F)cc2S1 (stereo not drawn) | > 100 | > 100 | > 100 | > 100 | > 100 | > 100 | > 100 | > 100 | > 100 | > 100 | – | – | – | – | – | – | – | – | – |
| Cc1cc(C)c2c(=O)n(CN3CC4Nc5ccccc5C4C3)sc2n1 (stereo not drawn) | > 100 | > 100 | > 100 | 14.2 | > 100 | > 100 | > 100 | > 100 | 32.2 | 71.4 | – | – | – | – | – | – | – | – | – |
| COc1ccc(/C(=N/O)c2ccccc2-c2nc3ccccc3c(=O)n2-c2ccc(S(=O)(=O)Nc3ncccn3)cc2)cc1C | > 31.6 | 31.3 | 25.5 | 23.7 | > 31.6 | 20.8 | > 31.6 | 25.2 | 30.5 | 19.9 | – | – | – | – | – | – | – | – | – |
| COc1cc2c(cc1OCCCCOc1cc(-c3ccc(F)cc3)nc(C)n1)N=C[C@@H]1CCCN1C2=O | 4.6 | 2.28 | 3.17 | 2.28 | 2.12 | 16.2 | 4.75 | 1.14 | 1.88 | 1.28 | – | – | – | – | – | – | – | – | – |
| CC1(C)O[C@@H]2COC(=O)[C@@H]2O1 | > 100 | > 100 | > 100 | > 100 | > 100 | > 100 | > 100 | > 100 | > 100 | > 100 | – | – | – | – | – | – | – | – | – |
| CCCCn1c2c(n(CCCC)c1=S)-c1c(n(CCCC)c(=S)n1CCCC)S[Se][Se]S2 | > 100 | 35.5 | > 46.6 | 0.479 | 53 | 55.1 | > 76.4 | 2.04 | 30.8 | 22.3 | – | – | – | – | – | – | – | – | – |
| Cc1cc2c(C)cc(=O)[nH]c2cc1N | > 100 | > 100 | > 100 | – | > 100 | – | > 100 | > 100 | > 100 | > 100 | – | – | – | – | – | – | – | – | – |
| Cc1cc(-c2nc3c(O)cccc3s2)ccc1N | – | 58.3 | 82.9 | 39.9 | 50.4 | > 100 | 41 | > 100 | 57.6 | 26.7 | – | – | – | – | – | – | – | – | – |
| O=C(NC(Cc1c[nH]c2ccccc12)C(=O)O)/C(=C/c1ccccc1O)NC(=O)c1ccccc1 (stereo not drawn) | > 100 | 52.5 | > 100 | > 100 | 39.7 | 56.7 | > 100 | > 100 | > 100 | > 100 | – | – | – | – | – | – | – | – | – |
| CCCCN1CCN(c2ccc3nc(-c4ccc5nc(-c6ccc(C(F)(F)F)cc6)[nH]c5c4)[nH]c3c2)CC1 | 3.45 | 3.1 | 0.945 | 3.49 | > 75.9 | 3.39 | – | 3.19 | 3.41 | 3.11 | 1.78 | 1.61 | 0.289 | 1.78 | 3.24 | 1.91 | 1.38 | 1.78 | 1.58 |
| N#Cc1c(-c2ccccc2)/c(=C\Nc2ccc(Cl)cc2)c(=O)n2c1nc1ccccc12 | > 100 | > 100 | 84.9 | > 100 | > 100 | > 100 | > 100 | > 100 | > 100 | – | – | – | – | – | – | – | – | – | – |
| CCCCCCCCCC[C@H](O)[C@H]1CC[C@H]([C@H]2CC[C@H]([C@H](O)CC[C@H](O)CCCCCCC[C@@H](O)CC3=C[C@H](C)OC3=O)O2)O1 | > 100 | > 100 | > 100 | > 100 | > 100 | – | > 100 | > 100 | > 100 | – | 89.4 | – | 3.12 | – | 16.5 | – | 2.17 | – | – |
| CCOC(=O)c1[nH]cc(C)c1-c1ccn(-c2ccccc2)c1 | > 100 | > 100 | 79.3 | 71.2 | > 100 | > 100 | – | > 100 | > 100 | > 100 | – | – | – | – | – | – | – | – | – |
| Cc1cn2c(/C=C3/C(=O)Nc4cccc(Cl)c43)c(Cl)nc2s1 | > 100 | > 100 | 28 | > 100 | > 100 | > 100 | > 100 | > 100 | > 100 | > 100 | – | – | – | – | – | – | – | – | – |
| O=C1c2ccccc2CN1c1ccc(O)cc1 | > 100 | > 100 | > 100 | > 100 | > 100 | > 100 | > 100 | > 100 | > 100 | > 100 | – | – | – | – | – | – | – | – | – |
| Nc1c2ccccc2nc2c1ccc1ncccc12 | – | > 100 | 39 | 38.3 | 89.1 | > 100 | > 100 | > 100 | > 100 | 37.8 | – | – | – | – | – | – | – | – | – |
| CC(=O)OC[C@]1(C(=O)C(O)c2ccoc2)[C@H](C)CC[C@@]23COC(=O)C2=CCC[C@@H]31 (stereo partly drawn) | > 10 | > 10 | > 10 | > 10 | > 10 | > 10 | > 10 | > 10 | > 10 | > 10 | – | – | – | – | – | – | – | – | – |

Reference: PubChem BioAssay (NCI)
